From patent publication US20040266863A1, “Use of (11beta,17beta)-11-(1,3-benzodioxol-5-yl)-17-hydroxy-17-(1-propynyl)-estra-4,9-dien-3-one in the treatment of major depressive disorder” (priority 2001, published 2004)

Key:
glucocorticoid receptor = target: T1, glucocorticoid receptor (Homo sapiens, UniProt P04150); test: in vitro binding to the glucocorticoid receptor
T1 sequence (P04150 1-777): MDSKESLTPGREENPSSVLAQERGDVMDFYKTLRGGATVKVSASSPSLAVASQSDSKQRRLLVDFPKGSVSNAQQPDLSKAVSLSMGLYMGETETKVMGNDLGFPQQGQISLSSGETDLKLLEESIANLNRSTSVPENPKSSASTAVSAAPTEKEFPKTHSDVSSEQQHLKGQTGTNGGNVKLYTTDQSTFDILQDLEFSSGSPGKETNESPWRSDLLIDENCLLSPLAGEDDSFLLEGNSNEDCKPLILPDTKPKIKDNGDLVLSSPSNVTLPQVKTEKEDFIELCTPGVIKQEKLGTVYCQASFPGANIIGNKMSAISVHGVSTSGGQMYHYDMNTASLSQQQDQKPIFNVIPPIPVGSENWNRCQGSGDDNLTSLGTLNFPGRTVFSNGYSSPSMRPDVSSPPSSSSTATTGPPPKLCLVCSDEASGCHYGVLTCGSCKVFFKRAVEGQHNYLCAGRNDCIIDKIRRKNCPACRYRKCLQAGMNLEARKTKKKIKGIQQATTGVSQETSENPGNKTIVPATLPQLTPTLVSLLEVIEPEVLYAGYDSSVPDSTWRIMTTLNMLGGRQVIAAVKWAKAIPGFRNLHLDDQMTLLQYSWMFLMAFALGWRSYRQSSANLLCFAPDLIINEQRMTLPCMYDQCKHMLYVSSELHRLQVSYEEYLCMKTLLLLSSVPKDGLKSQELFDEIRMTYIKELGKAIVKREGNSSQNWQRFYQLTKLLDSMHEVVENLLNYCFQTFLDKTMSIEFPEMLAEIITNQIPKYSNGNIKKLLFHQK

[1] = test system: depressed patients (Major Depressive Disorder); test: double blind, 4 week, paroxetine controlled study in patients with Major Depressive Disorder (HAMD-21); type: in vivo, human; conditions: for difference on the Hamilton scale versus paroxetine (onset of antidepressant effect): 150 mg treatment group
Protocol: A double blind, 4 week, paroxetine controlled study of Org 34517 in depressed patients was carried out. Paroxetine is a selective serotonin re-uptake inhibitor which is recognized as an effective antidepressant for major depression.
Patients were randomly allocated to one of three treatment groups. Group I patients (Org 150 group: 50 patients) received 2 capsules with 75 mg of Org 34517 and one placebo (total daily dose 150 mg) for the first 2 weeks and 2 capsules with 75 mg Org 34517 and 1 capsule with 150 mg (total daily dose 300 mg) the next 2 weeks; Group II patients (Org 450 group: 46 patients) received 3 capsules with 150 mg Org 34517 (total daily dose 450 mg) in the first 2 weeks and 4 capsules of Org 34517 (total daily dose 600 mg) in the next 2 weeks; Group III patients (paroxetine group: 44 patients) received 2 capsules with 10 mg paroxetine and one placebo capsule (total daily dose 20 mg) for the first 2 weeks, followed by 2 capsules of 10 mg and one capsule of 20 mg paroxetine (total daily dose 40 mg) in the next 2 weeks. Medication was administered orally in the morning. Efficacy assessment was done on days 4, 7, 10, 14, 21, 28 and 35 by using the 21-item HAMD scale.
Afternoon cortisol plasma levels (ACT=afternoon cortisol test) were measured as described by Halbreich et al (J. Clin. Endocrinol. Metab. 54(6), 1262, 1982).

[2] = test system: immature dexamethasone treated male rats; test: in vivo antiglucocorticoid activity in immature dexamethasone treated male rats (procedure of Kloosterboer et al); design: species or system rat; conditions: for threshold dose for demonstrating in vivo antiglucocorticoid effects: rat
(healthy) humans = test: clinical study of antiglucocorticoid activity in healthy humans (cortisol increase, dexamethason antagonism); type: in vivo, human
[3] = test system: patients with psychotic major depression; conditions: 8-12 mg/kg/day over 4 days (WO 99/17779); cited from earlier work

## CC#C[C@]1(O)CC[C@H]2[C@@H]3CCC4=CC(=O)CCC4=C3[C@@H](c3ccc4c(c3)OCO4)C[C@@]21C [Org 34517, (11β,17β)-11-(1,3-benzodioxol-5-yl)-17-hydroxy-17-(1-propynyl)estra-4,9-dien-3-one]
Glucocorticoid receptor
  potency in in vitro binding to the glucocorticoid receptor, relative to mifepristone: 52%
[1]; all patients, day 10, FIG. 1
  difference on the Hamilton scale versus paroxetine (onset of antidepressant effect): ~2 point
[1]; daily dosage not exceeding 300 mg compared with 450 mg or more
  onset of antidepressant effect: fast onset of antidepressant effect
[1]; dexamethason non-suppressors, day 10, FIG. 3
  difference on the Hamilton scale versus paroxetine (onset of antidepressant effect): ~6 point
[1]; patients with afternoon plasma cortisol higher than 10 μg/dl at start, day 10, FIG. 2
  difference on the Hamilton scale versus paroxetine (onset of antidepressant effect): ~4 point
[2]; orally applied, 10 mg/kg to 40 mg/kg, immature dexamethasone treated male rats
  antiglucocorticoid activity: effect (weight gain) on body weight, adrenals, thymus and spleen: proved to increase with the dose
[2]
  threshold dose for demonstrating in vivo antiglucocorticoid effects: 20 mg/kg
(healthy) humans
  antiglucocorticoid potency relative to mifepristone, estimated on the amount of dexamethason antagonism: 17%
  antiglucocorticoid potency relative to mifepristone, estimated on the basis of the cortisol increase: 10-25%

## CC#C[C@]1(O)CC[C@H]2[C@@H]3CCC4=CC(=O)CCC4=C3[C@@H](c3ccc(N(C)C)cc3)C[C@@]21C [mifepristone, 17β-hydroxy-11β-(4-dimethylaminophenyl)-17α-(1-propynyl)estra-4,9-dien-3-one, reference compound]
[3]
  treatment of psychosis associated with psychotic major depression: effective
[2]
  threshold dose for demonstrating in vivo antiglucocorticoid effects: 5 mg/kg
